Experimental data: patent EP0703239A1, “Aminomethylphosphonic and aminomethylphosphinic acids derivatives and their use in the treatment of degenerative articular diseases” (priority 1994, dated 1996)
pIC50: −log10 of the molar value.

The molecules below were run on Rattenlebermikrosomen (assay: Inhibition of microsomal lipid peroxidation (malondialdehyde/thiobarbituric acid)). Conditions: rat liver microsomes, FeSO₄ start, 10 min 37°C; read-out: IC50 Mikrosomale Lipidperoxidation.
Assay type: biochemical, Ratte
Experimental: 4. Hemmung der Mikrosomalen Lipidperoxidation […]
Alle Schritte werden bei 0°C durchgeführt. Die Leber einer Ratte wird, um alles Hämoglobin zu entfernen, mit 0,9 % NaCl-Lösung gründlich gespült. Die grob zerkleinerte Leber wird dann in 10 mM Tris/HCl pH 7,4; 250 mM Saccharose (10 ml Puffer/g Leber) gepottert. Zunächst wird 5 Minuten bei 600xg zentrifugiert. Der Überstand wird dann 10 min bei 12000xg zentrifugiert und wird mit festem CaCl₂ (117,6 mg/100 ml) auf eine Konzentration von 8 mM eingestellt. Durch Zentrifugieren bei 25000 xg (15 min) wird ein Mikrosomenniederschlag gewonnen. Dieser Niederschlag wird im gleichen Volumen Puffer (10 mM Tris/HCl pH 7,4; 150 mM KCl) rehomogenisiert und erneut 15 min bei 25000 xg zentrifugiert.
Ein Testansatz besteht aus 20 µl Mikrosomen (100 mg/ml), vgl. oben, gelöst in Puffer (250 mM Tris/HCl pH 6,6, 750 mM KCl), 10 µl 50 mM MgCl₂, 10 µl 200 mM Isocitronensäure, 10 µl 4mM NADP (3,028 mg/ml Wasser), 10 µl 25 mM Niacinamid, 10 µl Isocitratdehydrogenase (1:100 verdünnt) und 20 µl Wasser oder Testsubstanz. Gestartet wird die Reaktion mit 10 µl 0,25 mM FeSO₄. Die Inkubation dauert 10 Minuten und erfolgt bei 37°C. Gestoppt wird mit 500 µl eiskalter 20 %iger Trichloressigsäure. Entstandenes Malondialdehyd wird durch Zugabe von 500 µl 0,67 %iger Thiobarbitursäure und 30 Minuten Inkubation bei 90°C in eine pinkfarbene Verbindung überführt, die bei 532 nm gemessen wird. Die Extinktion im Kontrollansatz ohne Prüfpräparat wird auf 0 % Hemmung gesetzt, während das völlige Verschwinden des Signals 100 % Hemmung bedeutet.

| Compound | pIC50 |
| --- | --- |
| CCCN(CCC)C(c1cc(C(C)(C)C)c(O)c(C(C)(C)C)c1)P(=O)(OCC)OCC (stereo not shown) [Beispiel 21] | 5.20 |
| CCOP(=O)(OCC)C(Nc1ccc(Cl)c(Cl)c1)c1cc(C(C)(C)C)c(O)c(C(C)(C)C)c1 (stereo not shown) [Beispiel 48] | 5.53 |
| CCOP(=O)(OCC)C(Nc1ccc(NC(=N)N)cc1)c1cc(C(C)(C)C)c(O)c(C(C)(C)C)c1 (stereo not shown) [Beispiel 73] | 6.17 |
| CCOP(=O)(OCC)C(Nc1ccccc1Cl)c1cc(C(C)(C)C)c(O)c(C(C)(C)C)c1 (stereo not shown) [Beispiel 39] | 5.62 |
| COP(=O)(OC)C(Nc1ccc(Cl)cc1)c1cc(C(C)(C)C)c(O)c(C(C)(C)C)c1 (stereo not shown) [Beispiel 43] | 6.10 |
| CCCCOP(=O)(OCCCC)C(NC1CCCCC1)c1cc(C(C)(C)C)c(O)c(C(C)(C)C)c1 (stereo not shown) [Beispiel 10] | 5.05 |
| CCOP(=O)(OCC)C(Nc1ccc2c(c1)CCCC2)c1cc(C(C)(C)C)c(O)c(C(C)(C)C)c1 (stereo not shown) [Beispiel 75] | 5.54 |
| CCOP(=O)(OCC)C(c1cc(C(C)(C)C)c(O)c(C(C)(C)C)c1)N(C)c1ccc(Cl)cc1 (stereo not shown) [Beispiel 54] | 5.55 |
| CCOP(=O)(OCC)C(NC1CCCCCC1)c1cc(C(C)(C)C)c(O)c(C(C)(C)C)c1 (stereo not shown) [Beispiel 11] | 6.01 |
| CCOP(=O)(OCC)C(Nc1ccc2ccccc2c1)c1cc(C(C)(C)C)c(O)c(C(C)(C)C)c1 (stereo not shown) [Beispiel 76] | 5.69 |
| CCOP(=O)(OCC)C(NC(CC(C)C)C(=O)OC)c1cc(C(C)(C)C)c(O)c(C(C)(C)C)c1 (stereo not shown) [Beispiel 20] | 5.68 |
| CCCOP(=O)(OCCC)C(NC1CCCCC1)c1cc(C(C)(C)C)c(O)c(C(C)(C)C)c1 (stereo not shown) [Beispiel 9] | 5.68 |
| CC(C)(C)c1cc(C(Nc2ccc(Cl)cc2)P(=O)(O)O)cc(C(C)(C)C)c1O (stereo not shown) [Beispiel 4] | 6.15 |
| CCOP(=O)(OCC)C(Nc1ccc(C(=O)OC)cc1)c1cc(C(C)(C)C)c(O)c(C(C)(C)C)c1 (stereo not shown) [Beispiel 66] | 6.12 |
| C=CCOP(=O)(OCC=C)C(Nc1ccc(Cl)cc1)c1cc(C(C)(C)C)c(O)c(C(C)(C)C)c1 (stereo not shown) [Beispiel 46] | 6.07 |
| CCOP(=O)(OCC)C(NC1CC(C)(C)NC(C)(C)C1)c1cc(C(C)(C)C)c(O)c(C(C)(C)C)c1 (stereo not shown) [Beispiel 17] | 5.50 |
| CCOP(=O)(OCC)C(NC1CCN(Cc2ccccc2)CC1)c1cc(C(C)(C)C)c(O)c(C(C)(C)C)c1 (stereo not shown) [Beispiel 18] | 5.69 |

The molecules below were run on Chondrozyten (assay: IL-1-induced chondrocytic chondrolysis in chondrocyte agarose culture, 35S-sulfate incorporation). Conditions: agarose cell culture with 5 u/ml human rec. IL-1 alpha; factor relative to IL-1 treated control.

| Compound | Stimulationsfaktor der Proteoglykansynthese |
| --- | --- |
| CCOP(=O)(OCC)C(NC(C)C(=O)OC)c1cc(C(C)(C)C)c(O)c(C(C)(C)C)c1 (stereo not shown) [Beispiel 19] | 4,3 |
| CCN(CC)CCNC(c1cc(C(C)(C)C)c(O)c(C(C)(C)C)c1)[PH](=O)O (stereo not shown) [Beispiel 14] | 1,2 |
| CCOP(=O)(OCC)C(Nc1ccc(Cl)c(Cl)c1)c1cc(C(C)(C)C)c(O)c(C(C)(C)C)c1 (stereo not shown) [Beispiel 48] | 1,7 |
| CCOP(=O)(OCC)C(NCc1ccc(C#N)cc1)c1cc(C(C)(C)C)c(O)c(C(C)(C)C)c1 (stereo not shown) [Beispiel 35] | 3,9 |
| COP(=O)(OC)C(Nc1ccc(Cl)cc1)c1cc(C(C)(C)C)c(O)c(C(C)(C)C)c1 (stereo not shown) [Beispiel 43] | 1,4 |
| CCCCOP(=O)(OCCCC)C(NC1CCCCC1)c1cc(C(C)(C)C)c(O)c(C(C)(C)C)c1 (stereo not shown) [Beispiel 10] | 1,5 |
| CCOP(=O)(OCC)C(c1cc(C(C)(C)C)c(O)c(C(C)(C)C)c1)N(C)c1ccc(Cl)cc1 (stereo not shown) [Beispiel 54] | 1,4 |
| CC(C)(C)c1cc(C(Nc2ccc(Cl)cc2)P(C)(=O)O)cc(C(C)(C)C)c1O (stereo not shown) [Beispiel 41] | 3,5 |
| CC(C)(C)c1cc(C(NCc2ccc3c(c2)OCO3)[PH](=O)O)cc(C(C)(C)C)c1O (stereo not shown) [Beispiel 28] | 5,5 |
| CCOP(=O)(OCC)C(Nc1ccccc1)c1cc(C(C)(C)C)c(O)c(C(C)(C)C)c1 (stereo not shown) [Beispiel 37] | 1,5 |
| CCOP(=O)(OCC)C(NCc1ccc(Cl)cc1)c1cc(C(C)(C)C)c(O)c(C(C)(C)C)c1 (stereo not shown) [Beispiel 33] | 2,2 |
| CCOP(=O)(OCC)C(NCc1ccc(OC)cc1)c1cc(C(C)(C)C)c(O)c(C(C)(C)C)c1 (stereo not shown) [Beispiel 32] | 1,4 |
| CC(C)(C)c1cc(C(Nc2ccc(Cl)cc2)P(=O)(Oc2ccccc2)Oc2ccccc2)cc(C(C)(C)C)c1O (stereo not shown) [Beispiel 47] | 1,8 |
| CC(C)(C)c1cc(C(NCc2ccccc2)[PH](=O)O)cc(C(C)(C)C)c1O (stereo not shown) [Beispiel 27] | 1,2 |
